# Assay results published in paper PMC11868595, “Safety, pharmacokinetics and efficacy of HA121-28 in patients with advanced solid tumors and RET fusion-positive non-small-cell lung cancer: a multicenter, open-label, single-arm phase 1/2 trial” (Signal Transduction and Targeted Therapy, 2025).
# Tested on: patients with RET fusion-positive NSCLC
# Assay: Phase 2 trial: adverse events (CTCAE)
# Format: in vivo, human
# From the text: The phase 2 trial was still ongoing. It was a single-arm, multicenter, open-label, nonrandomized study to assess the efficacy and safety of HA121-28 in RET-fusion-positive NSCLC.
# Patients aged 18–75 years (inclusive) who had unresectable locally advanced or metastatic NSCLC through histologically or cytologically examination were enrolled. Patients were also required to have documented RET fusions centrally examined by next-generation sequencing in certified laboratories but without other oncogenic alterations. Had progression on at least one previous line of standard treatment but have no previous use of other anti-RET inhibitors. The complete lists of inclusion and exclusion criteria of phase 1 and phase 2 are provided in both protocols (in Supplement).
# In phase 1 trial, during the dose-escalation part, patients first administered HA121-28 in a single ascending dose under the fasted state, then followed up for seven days. Then, patients received ascending doses of HA121-28 (q.d.) on a 21-day on and 7-day off treatment scheme for a 28-day cycle. For patients deemed beneficial from the treatment by investigators, treatment could remain until disease progression, or they discontinued from the study. In the dose-expansion part of phase 1, as well as phase 2, patients received HA121-28 (q.d.) at the selected doses on a 21-day on and 7-day off treatment scheme until disease progression, or they discontinued from the study.
# Treatment-emergent adverse events (TEAEs) were documented during the entire study period. The predefined adverse event of special interest (AESI) was ≥ grade 3 prolonged QT interval. Tumor imaging was performed using contrast-enhanced computed tomography or magnetic resonance imaging at screening, Day 28 of the first cycle, then approximately every eight weeks till the end of the study for phase 1; in phase 2, imaging was scheduled at screening, and every eight weeks during the first 40 weeks, followed by every 12 weeks for the rest of the study period. RECIST 1.1 was used by the independent review committee or investigators for assessment of tumor response. After the original assessment, a repeated assessment was required around four weeks later to confirm a complete or partial response.
# The primary endpoint of phase 2 was the independent review committee evaluated ORR using RECIST 1.1. The secondary endpoints included investigators assessed ORR; DCR, PFS, and DOR by the independent review committee and investigators; overall survival and TEAEs. Each TEAE was graded according to CTCAE version 5.0 and coded by MedDRA (version 24.0). The phase 2 trial is ongoing; not all endpoints are reported in this paper.
smiles,measurement,setting,value
"COc1cc2c(Nc3ccc(Br)cc3F)ncnc2cc1OCCCCN(C)C.Cl.Cl [HA121-28, N-(4-bromo-2-fluorophenyl)-7-(4-(dimethylamino)butoxy)-6-methoxy quinazolin-4-amine dihydrochloride]","TEAE, All: ALT increased","Phase 2 (N=48), 450 mg",20 (41.7) count (percentage)
same,"TEAE, All: AST increased","Phase 2 (N=48), 450 mg",21 (43.8) count (percentage)
same,"TEAE, All: Anemia","Phase 2 (N=48), 450 mg",5 (10.4) count (percentage)
same,"TEAE, All: Any","Phase 2 (N=48), 450 mg",48 (100) count (percentage)
same,"TEAE, All: Asthenia","Phase 2 (N=48), 450 mg",7 (14.6) count (percentage)
same,"TEAE, All: Blood ALP increased","Phase 2 (N=48), 450 mg",5 (10.4) count (percentage)
same,"TEAE, All: Blood creatinine increased","Phase 2 (N=48), 450 mg",9 (18.8) count (percentage)
same,"TEAE, All: COVID-19","Phase 2 (N=48), 450 mg",7 (14.6) count (percentage)
same,"TEAE, All: Cough","Phase 2 (N=48), 450 mg",6 (12.5) count (percentage)
same,"TEAE, All: Decreased appetite","Phase 2 (N=48), 450 mg",5 (10.4) count (percentage)
same,"TEAE, All: Diarrhea","Phase 2 (N=48), 450 mg",35 (72.9) count (percentage)
same,"TEAE, All: Dizziness","Phase 2 (N=48), 450 mg",3 (6.3) count (percentage)
same,"TEAE, All: Electrocardiogram T wave abnormal","Phase 2 (N=48), 450 mg",5 (10.4) count (percentage)
same,"TEAE, All: Fecal occult blood positive","Phase 2 (N=48), 450 mg",0 count (percentage)
same,"TEAE, All: GGT increased","Phase 2 (N=48), 450 mg",6 (12.5) count (percentage)
same,"TEAE, All: Hypertension","Phase 2 (N=48), 450 mg",11 (22.9) count (percentage)
same,"TEAE, All: Hypertriglyceridemia","Phase 2 (N=48), 450 mg",7 (14.6) count (percentage)
same,"TEAE, All: Hypoalbuminemia","Phase 2 (N=48), 450 mg",4 (8.3) count (percentage)
same,"TEAE, All: Hypokalemia","Phase 2 (N=48), 450 mg",11 (22.9) count (percentage)
same,"TEAE, All: Hyponatremia","Phase 2 (N=48), 450 mg",5 (10.4) count (percentage)
same,"TEAE, All: Nausea","Phase 2 (N=48), 450 mg",3 (6.3) count (percentage)
same,"TEAE, All: Neutrophil counts decreased","Phase 2 (N=48), 450 mg",7 (14.6) count (percentage)
same,"TEAE, All: Platelet counts decreased","Phase 2 (N=48), 450 mg",6 (12.5) count (percentage)
same,"TEAE, All: Prolonged QT interval","Phase 2 (N=48), 450 mg",21 (43.8) count (percentage)
same,"TEAE, All: Proteinuria","Phase 2 (N=48), 450 mg",16 (33.3) count (percentage)
same,"TEAE, All: Rash","Phase 2 (N=48), 450 mg",30 (62.5) count (percentage)
same,"TEAE, All: Sinus tachycardia","Phase 2 (N=48), 450 mg",5 (10.4) count (percentage)
same,"TEAE, All: Urinary tract infection","Phase 2 (N=48), 450 mg",5 (10.4) count (percentage)
same,"TEAE, All: Vomiting","Phase 2 (N=48), 450 mg",6 (12.5) count (percentage)
same,"TEAE, All: Weight loss","Phase 2 (N=48), 450 mg",5 (10.4) count (percentage)
same,"TEAE, All: White blood cell counts decreased","Phase 2 (N=48), 450 mg",8 (16.7) count (percentage)
same,"TEAE, ≥ Grade 3: ALT increased","Phase 2 (N=48), 450 mg",3 (6.3) count (percentage)
same,"TEAE, ≥ Grade 3: AST increased","Phase 2 (N=48), 450 mg",2 (4.2) count (percentage)
same,"TEAE, ≥ Grade 3: Anemia","Phase 2 (N=48), 450 mg",0 count (percentage)
same,"TEAE, ≥ Grade 3: Any","Phase 2 (N=48), 450 mg",35 (72.9) count (percentage)
same,"TEAE, ≥ Grade 3: Asthenia","Phase 2 (N=48), 450 mg",0 count (percentage)
same,"TEAE, ≥ Grade 3: Blood ALP increased","Phase 2 (N=48), 450 mg",0 count (percentage)
same,"TEAE, ≥ Grade 3: Blood creatinine increased","Phase 2 (N=48), 450 mg",0 count (percentage)
same,"TEAE, ≥ Grade 3: COVID-19","Phase 2 (N=48), 450 mg",1 (2.1) count (percentage)
same,"TEAE, ≥ Grade 3: Cough","Phase 2 (N=48), 450 mg",0 count (percentage)
same,"TEAE, ≥ Grade 3: Decreased appetite","Phase 2 (N=48), 450 mg",1 (2.1) count (percentage)
same,"TEAE, ≥ Grade 3: Diarrhea","Phase 2 (N=48), 450 mg",6 (12.5) count (percentage)
same,"TEAE, ≥ Grade 3: Dizziness","Phase 2 (N=48), 450 mg",0 count (percentage)
same,"TEAE, ≥ Grade 3: Electrocardiogram T wave abnormal","Phase 2 (N=48), 450 mg",0 count (percentage)
same,"TEAE, ≥ Grade 3: Fecal occult blood positive","Phase 2 (N=48), 450 mg",0 count (percentage)
same,"TEAE, ≥ Grade 3: GGT increased","Phase 2 (N=48), 450 mg",0 count (percentage)
same,"TEAE, ≥ Grade 3: Hypertension","Phase 2 (N=48), 450 mg",9 (18.8) count (percentage)
same,"TEAE, ≥ Grade 3: Hypertriglyceridemia","Phase 2 (N=48), 450 mg",0 count (percentage)
same,"TEAE, ≥ Grade 3: Hypoalbuminemia","Phase 2 (N=48), 450 mg",0 count (percentage)
same,"TEAE, ≥ Grade 3: Hypokalemia","Phase 2 (N=48), 450 mg",3 (6.3) count (percentage)
same,"TEAE, ≥ Grade 3: Hyponatremia","Phase 2 (N=48), 450 mg",0 count (percentage)
same,"TEAE, ≥ Grade 3: Nausea","Phase 2 (N=48), 450 mg",0 count (percentage)
same,"TEAE, ≥ Grade 3: Neutrophil counts decreased","Phase 2 (N=48), 450 mg",2 (4.2) count (percentage)
same,"TEAE, ≥ Grade 3: Platelet counts decreased","Phase 2 (N=48), 450 mg",0 count (percentage)
same,"TEAE, ≥ Grade 3: Prolonged QT interval","Phase 2 (N=48), 450 mg",15 (31.3) count (percentage)
same,"TEAE, ≥ Grade 3: Proteinuria","Phase 2 (N=48), 450 mg",0 count (percentage)
same,"TEAE, ≥ Grade 3: Rash","Phase 2 (N=48), 450 mg",1 (2.1) count (percentage)
same,"TEAE, ≥ Grade 3: Sinus tachycardia","Phase 2 (N=48), 450 mg",0 count (percentage)
same,"TEAE, ≥ Grade 3: Urinary tract infection","Phase 2 (N=48), 450 mg",1 (2.1) count (percentage)
same,"TEAE, ≥ Grade 3: Vomiting","Phase 2 (N=48), 450 mg",0 count (percentage)
same,"TEAE, ≥ Grade 3: Weight loss","Phase 2 (N=48), 450 mg",0 count (percentage)
same,"TEAE, ≥ Grade 3: White blood cell counts decreased","Phase 2 (N=48), 450 mg",1 (2.1) count (percentage)
same,Serious TEAE: ALT increased,"Phase 2, 450 mg (N=48)",1 (2.1) No. (%)
same,Serious TEAE: AST increased,"Phase 2, 450 mg (N=48)",1 (2.1) No. (%)
same,Serious TEAE: Abdominal Pain,"Phase 2, 450 mg (N=48)",1 (2.1) No. (%)
same,Serious TEAE: Abdominal distension,"Phase 2, 450 mg (N=48)",1 (2.1) No. (%)
same,Serious TEAE: Acute cholecystitis,"Phase 2, 450 mg (N=48)",0 No. (%)
same,Serious TEAE: Acute pancreatitis,"Phase 2, 450 mg (N=48)",0 No. (%)
same,Serious TEAE: Anal abscess,"Phase 2, 450 mg (N=48)",0 No. (%)
same,Serious TEAE: Any,"Phase 2, 450 mg (N=48)",19 (39.6) No. (%)
same,Serious TEAE: Aortic intramural hematoma,"Phase 2, 450 mg (N=48)",0 No. (%)
same,Serious TEAE: Arrhythmia,"Phase 2, 450 mg (N=48)",0 No. (%)
same,Serious TEAE: Blood bilirubin increased,"Phase 2, 450 mg (N=48)",0 No. (%)
same,Serious TEAE: Blood creatinine increased,"Phase 2, 450 mg (N=48)",0 No. (%)
same,Serious TEAE: COVID-19,"Phase 2, 450 mg (N=48)",1 (2.1) No. (%)
same,Serious TEAE: Cardiac tamponade,"Phase 2, 450 mg (N=48)",0 No. (%)
same,Serious TEAE: Coronary artery atherosclerosis,"Phase 2, 450 mg (N=48)",1 (2.1) No. (%)
same,Serious TEAE: Death,"Phase 2, 450 mg (N=48)",1 (2.1) No. (%)
same,Serious TEAE: Diarrhea,"Phase 2, 450 mg (N=48)",1 (2.1) No. (%)
same,Serious TEAE: Drug eruption,"Phase 2, 450 mg (N=48)",0 No. (%)
same,Serious TEAE: Dyspnea,"Phase 2, 450 mg (N=48)",1 (2.1) No. (%)
same,Serious TEAE: Embolism,"Phase 2, 450 mg (N=48)",1 (2.1) No. (%)
same,Serious TEAE: Erythema multiforme,"Phase 2, 450 mg (N=48)",1 (2.1) No. (%)
same,Serious TEAE: Headache,"Phase 2, 450 mg (N=48)",1 (2.1) No. (%)
same,Serious TEAE: Hemoptysis,"Phase 2, 450 mg (N=48)",0 No. (%)
same,Serious TEAE: Hydronephrosis,"Phase 2, 450 mg (N=48)",1 (2.1) No. (%)
same,Serious TEAE: Hypertension,"Phase 2, 450 mg (N=48)",2 (4.2) No. (%)
same,Serious TEAE: Hypoalbuminemia,"Phase 2, 450 mg (N=48)",0 No. (%)
same,Serious TEAE: Intestinal obstruction,"Phase 2, 450 mg (N=48)",0 No. (%)
same,Serious TEAE: Intra-abdominal fluid collection,"Phase 2, 450 mg (N=48)",1 (2.1) No. (%)
same,Serious TEAE: Intracranial tumor hemorrhage,"Phase 2, 450 mg (N=48)",1 (2.1) No. (%)
same,Serious TEAE: Liver injury,"Phase 2, 450 mg (N=48)",0 No. (%)
same,Serious TEAE: Lung adenocarcinoma,"Phase 2, 450 mg (N=48)",1 (2.1) No. (%)
same,Serious TEAE: Malignant neoplasm progression,"Phase 2, 450 mg (N=48)",1 (2.1) No. (%)
same,Serious TEAE: Multiple organ dysfunction syndrome,"Phase 2, 450 mg (N=48)",0 No. (%)
same,Serious TEAE: Nausea,"Phase 2, 450 mg (N=48)",0 No. (%)
same,Serious TEAE: Nephrolithiasis,"Phase 2, 450 mg (N=48)",1 (2.1) No. (%)
same,Serious TEAE: Platelet counts decreased,"Phase 2, 450 mg (N=48)",0 No. (%)
same,Serious TEAE: Pleural effusion,"Phase 2, 450 mg (N=48)",0 No. (%)
